Source: patent publication US20240270751A1, “Pyrazolopyridinone Compounds” (BeiGene Ltd., priority 2021, published 2024)

Columns and labels:
DGKζ = DGKζ (Homo sapiens (Human), UniProt Q13574); test: Biochemical DGK IC50 assay, DGKζ ADP-Glo assay; conditions: 0.5 nM enzyme, 140 μM ATP, 80 μM DAG; read-out: DGKζ ADP-Glo assay IC50
Outline: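 Full-length human DGKζ, His-TEV tagged and purified from baculovirus-infected Sf9 cells, assayed by ADP-Glo with DAG/PS lipid micelle substrate prepared in 25 mM HEPES pH 7.0 with octyl glucoside. Final compound concentrations spanned 1.55–10000 nM or 23.3–150000 nM.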

DGKα = DGKα (Homo sapiens (Human), UniProt P23743); test: Biochemical DGK IC50 assay, DGKα ADP-Glo assay; conditions: 7.5 nM enzyme, 140 μM ATP, 80 μM DAG
Outline: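 ADP-Glo read-out with full-length DGKα on DAG/PS lipid micelle substrate in 25 mM HEPES pH 7.0, 0.5 mM EDTA, 160 mM octyl β-D-glucopyranoside. Compound final concentrations spanned 1.55˜10000 nM or 23.3˜150000 nM.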

Sequence of DGKα (P23743 whole entry): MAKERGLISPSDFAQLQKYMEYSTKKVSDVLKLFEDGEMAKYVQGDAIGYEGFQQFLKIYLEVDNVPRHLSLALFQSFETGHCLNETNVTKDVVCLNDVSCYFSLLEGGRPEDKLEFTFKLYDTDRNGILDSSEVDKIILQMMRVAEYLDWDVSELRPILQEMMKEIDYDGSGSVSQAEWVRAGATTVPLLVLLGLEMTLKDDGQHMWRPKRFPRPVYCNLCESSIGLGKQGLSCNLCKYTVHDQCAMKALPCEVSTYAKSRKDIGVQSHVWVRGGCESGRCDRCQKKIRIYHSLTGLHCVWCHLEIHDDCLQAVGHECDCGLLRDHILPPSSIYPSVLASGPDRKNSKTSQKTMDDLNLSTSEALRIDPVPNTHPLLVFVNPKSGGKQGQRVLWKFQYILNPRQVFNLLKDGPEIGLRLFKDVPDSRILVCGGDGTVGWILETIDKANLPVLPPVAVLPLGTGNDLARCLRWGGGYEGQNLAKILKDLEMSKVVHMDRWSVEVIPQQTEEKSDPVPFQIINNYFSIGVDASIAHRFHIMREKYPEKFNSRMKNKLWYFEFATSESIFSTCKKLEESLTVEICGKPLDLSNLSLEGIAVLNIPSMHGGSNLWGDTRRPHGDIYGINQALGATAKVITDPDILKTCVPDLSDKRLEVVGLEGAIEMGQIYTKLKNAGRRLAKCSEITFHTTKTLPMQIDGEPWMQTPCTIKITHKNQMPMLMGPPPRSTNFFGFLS
Sequence of DGKζ (Q13574 other isoform, or with tags, fused parts or gaps): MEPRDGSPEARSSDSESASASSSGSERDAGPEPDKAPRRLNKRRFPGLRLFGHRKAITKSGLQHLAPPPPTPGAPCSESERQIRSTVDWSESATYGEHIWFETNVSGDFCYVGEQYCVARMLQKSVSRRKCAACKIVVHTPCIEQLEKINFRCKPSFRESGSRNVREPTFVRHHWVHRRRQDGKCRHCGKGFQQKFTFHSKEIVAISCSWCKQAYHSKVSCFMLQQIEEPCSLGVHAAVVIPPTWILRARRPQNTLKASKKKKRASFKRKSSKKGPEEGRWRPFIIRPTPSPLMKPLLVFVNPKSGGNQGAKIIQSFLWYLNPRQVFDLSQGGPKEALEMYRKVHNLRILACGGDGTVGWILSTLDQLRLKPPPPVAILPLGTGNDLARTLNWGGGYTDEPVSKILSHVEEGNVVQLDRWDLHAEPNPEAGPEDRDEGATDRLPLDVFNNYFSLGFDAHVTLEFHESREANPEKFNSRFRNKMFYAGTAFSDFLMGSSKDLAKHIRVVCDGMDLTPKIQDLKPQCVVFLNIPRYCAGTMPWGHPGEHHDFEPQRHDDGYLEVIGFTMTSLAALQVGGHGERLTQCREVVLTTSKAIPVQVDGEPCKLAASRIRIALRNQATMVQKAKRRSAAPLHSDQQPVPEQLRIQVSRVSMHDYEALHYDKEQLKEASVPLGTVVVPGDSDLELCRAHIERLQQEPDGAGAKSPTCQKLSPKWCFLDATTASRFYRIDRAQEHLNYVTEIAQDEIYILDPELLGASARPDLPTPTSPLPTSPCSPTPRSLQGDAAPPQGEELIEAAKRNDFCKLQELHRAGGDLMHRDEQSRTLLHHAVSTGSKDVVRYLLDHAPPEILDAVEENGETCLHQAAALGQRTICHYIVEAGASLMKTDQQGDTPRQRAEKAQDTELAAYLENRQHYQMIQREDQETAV

Row | SMILES | IC50 (DGKζ) [µM] | IC50 (DGKα) [µM]
1 | Cc1c2c(nn1CC#N)c(N1C[C@@H](C)N(C(C)c3ccc4nccnc4c3)C[C@@H]1C)cc(=O)n2C (stereo partly drawn) [Compound A209, 2-(7-((2S,5R)-2,5-dimethyl-4-(1-(quinoxalin-6-yl)ethyl)piperazin-1-yl)-3,4-dimethyl-5-oxo-4,5-dihydro-2H-pyrazolo[4,3-b]pyridin-2-yl)acetonitrile] | 0.05 | 21.6
2 | CC[C@H]1CN(C(C)c2cc(C(F)(F)F)nn2CC)[C@H](CC)CN1c1cc(=O)n(C)c2cn(CC#N)nc12 (stereo partly drawn) [Compound A210] | 0.369 | 11.2
3 | CC[C@H]1CN(C(C)c2cc(C(F)(F)F)nn2CC)[C@H](CC)CN1c1cc(=O)n(C)c2cn(CC#N)nc12 (stereo partly drawn) [Compound A211] | 0.234 | 2.76
4 | CC[C@H]1CN(C(C)c2cc(Cl)nn2CC)[C@H](CC)CN1c1cc(=O)n(C)c2cn(CC#N)nc12 (stereo partly drawn) [Compound A212] | 1.13 | > 10
5 | CC[C@H]1CN(C(C)c2nc3ccccc3n2CCO)[C@H](CC)CN1c1cc(=O)n(C)c2cn(CC#N)nc12 (stereo partly drawn) [Compound A214] | 3.43 | > 10
6 | CC[C@H]1CN(C(C)c2nn(CC)cc2C)[C@H](CC)CN1c1cc(=O)n(C)c2cn(CC#N)nc12 (stereo partly drawn) [Compound A216] | 2.37 | > 10
7 | CC[C@H]1CN(C(C)c2cccnc2C(F)(F)F)[C@H](CC)CN1c1cc(=O)n(C)c2cn(CC#N)nc12 (stereo partly drawn) [Compound A217] | 0.378 | > 10
8 | CC[C@H]1CN(C(C)c2cnc(C)n2CC)[C@H](CC)CN1c1cc(=O)n(C)c2cn(CC#N)nc12 (stereo partly drawn) [Compound A219] | > 10 | > 10
9 | CC(C1CCCCC1)N1C[C@H](C)N(c2cc(=O)n(C)c3cn(CC#N)nc23)C[C@H]1C (stereo partly drawn) [Compound A223] | > 10 | > 10
10 | CC[C@@H]1CN(c2cc(=O)n(C)c3cn(CC#N)nc23)[C@@H](COC)CN1C(C)c1ccc2nccnc2c1 (stereo partly drawn) [Compound A225, 2-(7-((2R,5R)-5-ethyl-2-(methoxymethyl)-4-(1-(quinoxalin-6-yl)ethyl)piperazin-1-yl)-4-methyl-5-oxo-4,5-dihydro-2H-pyrazolo[4,3-b]pyridin-2-yl)acetonitrile] | 0.099 | 7.45

Other lines, results leading:

Row | IC50 (DGKζ) [µM] | IC50 (DGKα) [µM] | SMILES
11 | 2.29 | 8.43 | CC[C@H]1CN(C(C)c2cnc(Cl)cc2C(F)(F)F)[C@H](CC)CN1c1cc(=O)n(C)c2cn(CC#N)nc12 (stereo partly drawn) [Compound A226]
12 | 9.2 | > 10 | CC[C@H]1CN(C(C)c2ccnn2CC(F)F)[C@H](CC)CN1c1cc(=O)n(C)c2c[nH]nc12 (stereo partly drawn) [Compound A228, 7-((2S,5R)-4-(1-(1-(2,2-difluoroethyl)-1H-pyrazol-5-yl)ethyl)-2,5-diethylpiperazin-1-yl)-4-methyl-2,4-dihydro-5H-pyrazolo[4,3-b]pyridin-5-one]
13 | 0.166 | 24.1 | CC[C@@H]1CN(c2cc(=O)n(C)c3cn(CC#N)nc23)[C@@H](CO)CN1C(C)c1ccc2nccnc2c1 (stereo partly drawn) [Compound A229, 2-(7-((2R,5R)-5-ethyl-2-(hydroxymethyl)-4-(1-(quinoxalin-6-yl)ethyl)piperazin-1-yl)-4-methyl-5-oxo-4,5-dihydro-2H-pyrazolo[4,3-b]pyridin-2-yl)acetonitrile]
14 | 3.11 | 8.49 | CC[C@H]1CN(C(C)c2cn(C)nc2C(F)(F)F)[C@H](CC)CN1c1cc(=O)n(C)c2cn(CC#N)nc12 (stereo partly drawn) [Compound A232, 2-(7-((2S,5R)-2,5-diethyl-4-(1-(1-methyl-3-(trifluoromethyl)-1H-pyrazol-4-yl)ethyl)piperazin-1-yl)-4-methyl-5-oxo-4,5-dihydro-2H-pyrazolo[4,3-b]pyridin-2-yl)acetonitrile]
15 | 0.033 | 6.98 | CC[C@H]1CN(C(C)c2cnn(C)c2C(F)(F)F)[C@H](CC)CN1c1cc(=O)n(C)c2cn(CC#N)nc12 (stereo partly drawn) [Compound A233, 2-(7-((2S,5R)-2,5-diethyl-4-(1-(1-methyl-5-(trifluoromethyl)-1H-pyrazol-4-yl)ethyl)piperazin-1-yl)-4-methyl-5-oxo-4,5-dihydro-2H-pyrazolo[4,3-b]pyridin-2-yl)acetonitrile]
